Patent publication US20230002359A1, “PESTICIDALLY ACTIVE FUSED BICYCLIC HETEROAROMATIC COMPOUNDS” (priority 2019, published 2023)

Experiments:
Format in all cases: in vivo
[1] = tested on: Chilo suppressalis (Striped Rice Stemborer); assay: Example B3: Chilo suppressalis (striped rice stemborer), artificial diet, L2 larvae; settings: 144 h, application rate of 200 ppm, 6 days after infestation, L2 larvae, read-out: control in at least one of the three categories (mortality, anti-feedant effect, or growth inhibition)
Summary of the method: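 First, artificial diet was treated with aqueous solutions prepared from 10'000 ppm DMSO stocks; second, after drying, L2 larvae (6-8/well) were added; third, effects were assessed at 6 days against untreated controls, counting control when any of three categories was higher.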

[2] = tested on: Diabrotica Balteata (Corn Root Worm); assay: Example B1: Diabrotica balteata (corn root worm), maize sprouts sprayed, L2 larvae; settings: 96 h, application rate of 200 ppm, 4 days after infestation, L2 larvae, read-out: control in at least one of the two categories (mortality or growth inhibition)
Summary of the method: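 Larvae at L2 stage, 6 to 10 per well, feed on dried, spray-treated maize sprouts set on agar. Evaluation after 4 days compares mortality and growth inhibition with untreated samples.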

[3] = tested on: Plutella xylostella (Diamond Back Moth); assay: Example B4: Plutella xylostella (diamond back moth), artificial diet, eggs, 24-well; settings: 192 h, application rate of 200 ppm, 8 days after infestation, eggs, read-out: control in at least one of the two categories (mortality or growth inhibition)
Procedure: 24-well microtiter plates with artificial diet were treated with aqueous test solutions prepared from 10′000 ppm DMSO stock solutions by pipetting. After drying, Plutella eggs were pipetted through a plastic stencil onto a gel blotting paper and the plate was closed with it. The samples were assessed for mortality and growth inhibition in comparison to untreated samples 8 days after infestation.

[4] = tested on: Spodoptera littoralis (Egyptian Cotton Leaf Worm); assay: Example B7: Spodoptera littoralis (Egyptian cotton leaf worm), cotton leaf discs sprayed, L1 larvae; settings: foliar, 72 h, application rate of 200 ppm, 3 days after infestation, L1 larvae, read-out: control in at least one of the three categories (mortality, anti-feedant effect, or growth inhibition)
Summary of the method: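 Spray application onto agar-supported cotton leaf discs used aqueous solutions derived from 10′000 ppm DMSO stocks. Once dry, discs were infested with five L1 larvae and evaluated after 3 days for mortality, anti-feeding and growth inhibition relative to untreated controls.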

CC(Nc1ncnc2c(Br)cc(C(F)(F)F)cc12)c1nccnc1-c1ccc(C#N)cn1 (centres unmarked) [P.117, 6-[3-[1-[[8-bromo-6-(trifluoromethyl)quinazolin-4-yl]amino]ethyl]pyrazin-2-yl]pyridine-3-carbonitrile]
≥ 80%: percent control (mortality, anti-feedant effect or growth inhibition) at 200 ppm [1] | percent control (mortality or growth inhibition) at 200 ppm [2] | percent control (mortality or growth inhibition) at 200 ppm [3] | percent control (mortality, anti-feedant effect or growth inhibition) at 200 ppm [4]

CC(Nc1ncnc2c(C(F)(F)F)cc(Cl)cc12)c1nccnc1-c1ccc(C#N)cn1 (centres unmarked) [P.118, 6-[3-[1-[[6-chloro-8-(trifluoromethyl)quinazolin-4-yl]amino]ethyl]pyrazin-2-yl]pyridine-3-carbonitrile]
≥ 80%: percent control (mortality, anti-feedant effect or growth inhibition) at 200 ppm [1] | percent control (mortality or growth inhibition) at 200 ppm [2] | percent control (mortality or growth inhibition) at 200 ppm [3] | percent control (mortality, anti-feedant effect or growth inhibition) at 200 ppm [4]

CC(Nc1ncnc2c(C(F)(F)F)cc(Br)cc12)c1nccnc1-c1ccc(C#N)cn1 (centres unmarked) [P.119, 6-[3-[1-[[6-bromo-8-(trifluoromethyl)quinazolin-4-yl]amino]ethyl]pyrazin-2-yl]pyridine-3-carbonitrile]
≥ 80%: percent control (mortality, anti-feedant effect or growth inhibition) at 200 ppm [1] | percent control (mortality or growth inhibition) at 200 ppm [2] | percent control (mortality or growth inhibition) at 200 ppm [3] | percent control (mortality, anti-feedant effect or growth inhibition) at 200 ppm [4]

CC(Nc1ncnc2c(C(F)(F)F)cc(Cl)cc12)c1nccnc1-c1ccc(OC(F)F)cn1 (centres unmarked) [P.120, 6-chloro-N-[1-[3-[5-(difluoromethoxy)-2-pyridyl]pyrazin-2-yl]ethyl]-8-(trifluoromethyl)quinazolin-4-amine]
≥ 80%: percent control (mortality, anti-feedant effect or growth inhibition) at 200 ppm [1] | percent control (mortality or growth inhibition) at 200 ppm [2] | percent control (mortality or growth inhibition) at 200 ppm [3] | percent control (mortality, anti-feedant effect or growth inhibition) at 200 ppm [4]

CC(c1nccnc1-c1ccc(C#N)cn1)N(C)c1ncnc2c(Cl)cc(C(F)(F)F)cc12 (centres unmarked) [P.122]
≥ 80%: percent control (mortality, anti-feedant effect or growth inhibition) at 200 ppm [1] | percent control (mortality or growth inhibition) at 200 ppm [2] | percent control (mortality or growth inhibition) at 200 ppm [3] | percent control (mortality, anti-feedant effect or growth inhibition) at 200 ppm [4]

CC(c1nccnc1-c1ccc(OC(F)F)cn1)N(C)c1ncnc2c(C(F)(F)F)cc(Cl)cc12 (centres unmarked) [P.123, 6-chloro-N-[1-[3-[5-(difluoromethoxy)-2-pyridyl]pyrazin-2-yl]ethyl]-N-methyl-8-(trifluoromethyl)quinazolin-4-amine]
≥ 80%: percent control (mortality, anti-feedant effect or growth inhibition) at 200 ppm [1] | percent control (mortality or growth inhibition) at 200 ppm [2] | percent control (mortality or growth inhibition) at 200 ppm [3] | percent control (mortality, anti-feedant effect or growth inhibition) at 200 ppm [4]

CC(c1nccnc1-c1ccc(C#N)cn1)N(C)c1ncnc2c(Br)cc(C(F)(F)F)cc12 (centres unmarked) [P.124, 6-[3-[1-[[8-bromo-6-(trifluoromethyl)quinazolin-4-yl]-methyl-amino]ethyl]pyrazin-2-yl]pyridine-3-carbonitrile]
≥ 80%: percent control (mortality, anti-feedant effect or growth inhibition) at 200 ppm [1] | percent control (mortality or growth inhibition) at 200 ppm [2] | percent control (mortality or growth inhibition) at 200 ppm [3] | percent control (mortality, anti-feedant effect or growth inhibition) at 200 ppm [4]

CC(c1nccnc1-c1ccc(C#N)cn1)N(CC1CC1)c1ncnc2c(C(F)(F)F)cc(C(F)(F)F)cc12 (centres unmarked) [P.126, 6-[3-[1-[[6,8-bis(trifluoromethyl)quina-zolin-4-yl]-(cyclopropylmethyl)amino]ethyl]pyrazin-2-yl]pyridine-3-carbonitrile]
≥ 80%: percent control (mortality, anti-feedant effect or growth inhibition) at 200 ppm [1] | percent control (mortality or growth inhibition) at 200 ppm [2] | percent control (mortality or growth inhibition) at 200 ppm [3] | percent control (mortality, anti-feedant effect or growth inhibition) at 200 ppm [4]

CC(c1nccnc1-n1nccn1)N(C)c1ncnc2c(C(F)(F)F)cc(Cl)cc12 (centres unmarked) [P.129, 6-chloro-N-methyl-N-[1-[3-(triazol-2-yl)pyrazin-2-yl]ethyl]-8-(trifluoromethyl)quinazolin-4-amine]
≥ 80%: percent control (mortality, anti-feedant effect or growth inhibition) at 200 ppm [1] | percent control (mortality or growth inhibition) at 200 ppm [2] | percent control (mortality or growth inhibition) at 200 ppm [3] | percent control (mortality, anti-feedant effect or growth inhibition) at 200 ppm [4]

CC(c1nccnc1-c1ncccn1)N(CC1CC1)c1ncnc2c(C(F)(F)F)cc(Cl)cc12 (centres unmarked) [P.131, 6-chloro-N-(cyclopropylmethyl)-N-[1-(3-pyrimidin-2-ylpyrazin-2-yl)ethyl]-8-(trifluoromethyl)quinazolin-4-amine]
≥ 80%: percent control (mortality, anti-feedant effect or growth inhibition) at 200 ppm [1] | percent control (mortality or growth inhibition) at 200 ppm [2] | percent control (mortality or growth inhibition) at 200 ppm [3] | percent control (mortality, anti-feedant effect or growth inhibition) at 200 ppm [4]

CC(Nc1ncnc2c(Cl)cc(Br)cc12)c1ncnn1-c1ncccn1 (centres unmarked) [P.159, 6-bromo-8-chloro-N-[1-(2-pyrimidin-2-yl-1,2,4-triazol-3-yl)ethyl]quinazolin-4-amine]
≥ 80%: percent control (mortality, anti-feedant effect or growth inhibition) at 200 ppm [1] | percent control (mortality or growth inhibition) at 200 ppm [2] | percent control (mortality or growth inhibition) at 200 ppm [3] | percent control (mortality, anti-feedant effect or growth inhibition) at 200 ppm [4]

C[C@H](Nc1ncnc2c(I)cc(C(F)(F)F)cc12)c1nccnc1-c1ccc(C#N)cn1 [P.161, 6-[3-[(1S)-1-[[8-iodo-6-(trifluoromethyl)quinazolin-4-yl]amino]ethyl]pyrazin-2-yl]pyridine-3-carbonitrile]
≥ 80%: percent control (mortality, anti-feedant effect or growth inhibition) at 200 ppm [1] | percent control (mortality or growth inhibition) at 200 ppm [2] | percent control (mortality or growth inhibition) at 200 ppm [3] | percent control (mortality, anti-feedant effect or growth inhibition) at 200 ppm [4]

C[C@@H](c1ncnn1-c1ccc(C#N)cn1)N(C)c1ncnc2c(C(F)(F)F)cc(C(F)(F)C3CC3)cc12 [P.163, 6-[5-[(1S)-1-[[6-[cyclopropyl(difluoro)meth-yl]-8-(trifluoromethyl)quinazolin-4-yl]-methyl-amino]ethyl]-1,2,4-triazol-1-yl]pyridine-3-carbonitrile]
≥ 80%: percent control (mortality, anti-feedant effect or growth inhibition) at 200 ppm [1] | percent control (mortality or growth inhibition) at 200 ppm [2] | percent control (mortality or growth inhibition) at 200 ppm [3] | percent control (mortality, anti-feedant effect or growth inhibition) at 200 ppm [4]

CC(Nc1ncnc2c(Br)cc(Cl)cc12)c1nccnc1-n1nccn1 (centres unmarked) [P.173, 8-bromo-6-chloro-N-[1-[3-(triazol-2-yl)pyrazin-2-yl]ethyl]quinazolin-4-amine]
≥ 80%: percent control (mortality, anti-feedant effect or growth inhibition) at 200 ppm [1] | percent control (mortality or growth inhibition) at 200 ppm [2] | percent control (mortality or growth inhibition) at 200 ppm [3] | percent control (mortality, anti-feedant effect or growth inhibition) at 200 ppm [4]

CC(c1nccnc1-n1nccn1)N(C)c1ncnc2c(Br)cc(Cl)cc12 (centres unmarked) [P.174, 8-bromo-6-chloro-N-methyl-N-[1-[3-(triazol-2-yl)pyrazin-2-yl]ethyl]quinazolin-4-amine]
≥ 80%: percent control (mortality, anti-feedant effect or growth inhibition) at 200 ppm [1] | percent control (mortality or growth inhibition) at 200 ppm [2] | percent control (mortality or growth inhibition) at 200 ppm [3] | percent control (mortality, anti-feedant effect or growth inhibition) at 200 ppm [4]

C[C@@H](c1ncnn1-c1ncccn1)N(C)c1c(F)cnc2c(C(F)(F)F)cc(C(F)(F)F)cc12 [P.176, 3-fluoro-N-methyl-N-[(1S)-1-(2-pyrimidin-2-yl-1,2,4-triazol-3-yl)ethyl]-6,8-bis(trifluoromethyl)quinolin-4-amine]
≥ 80%: percent control (mortality, anti-feedant effect or growth inhibition) at 200 ppm [1] | percent control (mortality or growth inhibition) at 200 ppm [2] | percent control (mortality or growth inhibition) at 200 ppm [3] | percent control (mortality, anti-feedant effect or growth inhibition) at 200 ppm [4]

CC(Nc1ncnc2c(Cl)cc(Br)cc12)c1nccnc1-c1ncccn1 (centres unmarked) [P.178, 6-bromo-8-chloro-N-[1-(3-pyrimidin-2-ylpyrazin-2-yl)ethyl]quinazolin-4-amine]
≥ 80%: percent control (mortality, anti-feedant effect or growth inhibition) at 200 ppm [1] | percent control (mortality or growth inhibition) at 200 ppm [2] | percent control (mortality or growth inhibition) at 200 ppm [3] | percent control (mortality, anti-feedant effect or growth inhibition) at 200 ppm [4]

CC(c1ncnn1-c1ccc(F)cn1)N(C)c1ncnc2c(Br)cc(C(F)(F)F)cc12 (centres unmarked) [P.185, 8-bromo-N-[1-[2-(5-fluoro-2-pyridyl)-1,2,4-triazol-3-yl]ethyl]-N-methyl-6-(trifluoromethyl)quinazolin-4-amine]
≥ 80%: percent control (mortality, anti-feedant effect or growth inhibition) at 200 ppm [1] | percent control (mortality or growth inhibition) at 200 ppm [2] | percent control (mortality or growth inhibition) at 200 ppm [3] | percent control (mortality, anti-feedant effect or growth inhibition) at 200 ppm [4]

CC(c1ncnn1-c1ccc(F)cn1)N(C)c1ncnc2c(C(F)(F)F)cc(C(F)(F)F)cc12 (centres unmarked) [P.189, N-[1-[2-(5-fluoro-2-pyridyl)-1,2,4-triazol-3-yl]ethyl]-N-methyl-6,8-bis(trifluoromethyl)quina-zolin-4-amine]
≥ 80%: percent control (mortality, anti-feedant effect or growth inhibition) at 200 ppm [1] | percent control (mortality or growth inhibition) at 200 ppm [2] | percent control (mortality or growth inhibition) at 200 ppm [3] | percent control (mortality, anti-feedant effect or growth inhibition) at 200 ppm [4]

CC(c1ncnn1-c1ccc(OC(F)F)cn1)N(C)c1ncnc2c(C(F)(F)F)cc(C(F)(F)F)cc12 (centres unmarked) [P.192]
≥ 80%: percent control (mortality, anti-feedant effect or growth inhibition) at 200 ppm [1] | percent control (mortality or growth inhibition) at 200 ppm [2] | percent control (mortality or growth inhibition) at 200 ppm [3] | percent control (mortality, anti-feedant effect or growth inhibition) at 200 ppm [4]
